From US5527703A (Merck & Co., Inc., priority 1994, dated 1996)

Experiments:
[1] = target: T1, GluClβ (Caenorhabditis elegans, UniProt Q17328); experiment: Activation of current in Xenopus oocytes expressing homomeric GluClβ (voltage clamp); type: cell-based, C. elegans
T1 construct: the full-length open reading frame of the GluCl cDNA encoding the GluClα (52,550 kDa) and GluClβ (49,900kDa) subunits; expressed in transfected cells; host or cells: Xenopus laevis oocytes injected with in vitro RNA
T1 sequence (Q17328 23-434): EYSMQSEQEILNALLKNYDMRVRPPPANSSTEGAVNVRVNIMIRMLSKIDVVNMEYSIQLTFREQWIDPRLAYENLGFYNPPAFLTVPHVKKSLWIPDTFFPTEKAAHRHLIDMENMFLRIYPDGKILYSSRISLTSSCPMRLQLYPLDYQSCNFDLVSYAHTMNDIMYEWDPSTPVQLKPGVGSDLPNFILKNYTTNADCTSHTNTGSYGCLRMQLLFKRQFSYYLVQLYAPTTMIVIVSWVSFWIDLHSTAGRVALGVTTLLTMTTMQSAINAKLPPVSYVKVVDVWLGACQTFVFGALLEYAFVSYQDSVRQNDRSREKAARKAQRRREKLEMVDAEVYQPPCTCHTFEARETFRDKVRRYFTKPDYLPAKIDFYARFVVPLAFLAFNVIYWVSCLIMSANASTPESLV
Method: (§1) Xenopus laevis oocytes were prepared and injected using standard methods previously described and known in the art [Arena, J. P., Liu. K. K., Paress, P. S. & Cully. D. F. Mol. Pharmacol. 40, 368-374 (1991 ); Arena, J. P., Liu, K. K., Paress, P. S., Schaeffer, J. M. & Cully, D. F. Mol. Brain Res. 15, 339-348 (1992)]. Adult female Xenopus laevis were anesthetized with 0.17% tricaine methanesulfonate and the ovaries were surgically removed and placed in a dish consisting of (mM): NaCl 1 82.5, KCl 2. MgCl2 1, CaCl2 1.8, HEPES 5 adjusted to pH 7.5 with NaOH (OR-2). Ovarian lobes were broken open, rinsed several times, and gently shaken in OR-2 containing 0.2% collagenase (Sigma, Type 1A) for 2-5 hours. When approximately 50% of the follicular layers were removed, Stage V and VI oocytes were selected and placed in media consisting of (mM): NaCl 86, KCl 2, MgCl2 1, CaCl2 1.8, HEPES 5, Na pyruvate 2.5, theophylline 0.5, gentamicin 0.1 adjusted to pH 7.5 with NaOH (ND-96) for 24-48 hours before injection. Oocytes were injected with 50-70 nl of poly(A^+) RNA (1 mg/ml) or 50 nl of GluClα (0.1-100 ng) and/or GluClβ (0.1-100 ng). Control oocytes were injected with 50 nl of water. Oocytes were incubated for 2-10 days in ND-96 before recording. Incubations and collagenase digestion were carried out at 18° C.
(§2) Recordings were made at room temperature 2-10 days after injection. Unless otherwise indicated recordings were made in standard frog saline consisting of (mM): NaCl 115, KCl 2, MgCl2 1, CaCl2 1.8, HEPES 10 adjusted to pH 7.5 with NaOH. Oocytes were voltage-clamped using a standard two microelectrode amplifier (Dagan 8500 or TEV-200, Minneapolis,Minn.). Pipettes were filled with 3M KCl and had resistances between 0.5-3.0 M.OMEGA.. A plexiglass recording chamber (volume 200 μl) was constantly perfused at a rate of 10 ml/min. The recording chamber was connected to ground with a Ag/AgCl electrode directly, or through a 3M KCl agar bridge when extracellular chloride was varied. For low chloride solutions NaCl was replaced with equimolar concentrations of sodium isethionic acid. For low sodium solutions NaCl was replaced with equimolar KCl or choline Cl. Data were acquired and analyzed using PCLAMP with a TL-1 interface (Axon Instruments, Foster City, Calif.). Membrane current at a holding potential of -80 mV was recorded. The amplitude of drug-sensitive current was determined by subtracting the holding current at -80 mV from the peak current obtained in the presence of drug. Data were filtered at 30 Hz and sampled at 16.6 Hz. Current/voltage relationships (I/V) and reversal potentials (Erev) were determined using a 1-3 sec voltage ramp over the voltage range of -110 to +80 mV. For the ramps, data were filtered at 0.3-3 kHz and sampled at 160 Hz. Current in drug free solution was subtracted from current in the presence of drug to obtain drug-sensitive current/voltage relationships.
(§3) Electrophysiological properties were examined in oocytes injected with in vitro RNA from pGluClα and pGluClβ (FIG. 5).

[2] = tested on: glutamate- and avermectin-sensitive chloride channel (C. elegans poly(A)+ RNA); experiment: Current in Xenopus oocytes injected with C. elegans poly(A)+ RNA; type: cell-based; details: for type of drug-sensitive current: poly(A)+ RNA injected oocytes
Method: as §1
Recordings were made at room temperature 2-10 days after injection. Unless otherwise indicated recordings were made in standard frog saline consisting of (mM): NaCl 115, KCl 2, MgCl2 1, CaCl2 1.8, HEPES 10 adjusted to pH 7.5 with NaOH. […] Data were acquired and analyzed using PCLAMP with a TL-1 interface (Axon Instruments, Foster City, Calif.). Membrane current at a holding potential of -80 mV was recorded. The amplitude of drug-sensitive current was determined by subtracting the holding current at -80 mV from the peak current obtained in the presence of drug. […] Current/voltage relationships (I/V) and reversal potentials (Erev) were determined using a 1-3 sec voltage ramp over the voltage range of -110 to +80 mV. […]

[3] = target: T2, GluClα (Caenorhabditis elegans, UniProt G5EBR3); experiment: Activation of current in Xenopus oocytes expressing homomeric GluClα (voltage clamp); type: cell-based, C. elegans; set-up: the full-length open reading frame of the GluCl cDNA encoding the GluClα (52,550 kDa) and GluClβ (49,900kDa) subunits; expressed in transfected cells; host or cells: Xenopus laevis oocytes injected with in vitro RNA
T2 sequence (G5EBR3 21-461): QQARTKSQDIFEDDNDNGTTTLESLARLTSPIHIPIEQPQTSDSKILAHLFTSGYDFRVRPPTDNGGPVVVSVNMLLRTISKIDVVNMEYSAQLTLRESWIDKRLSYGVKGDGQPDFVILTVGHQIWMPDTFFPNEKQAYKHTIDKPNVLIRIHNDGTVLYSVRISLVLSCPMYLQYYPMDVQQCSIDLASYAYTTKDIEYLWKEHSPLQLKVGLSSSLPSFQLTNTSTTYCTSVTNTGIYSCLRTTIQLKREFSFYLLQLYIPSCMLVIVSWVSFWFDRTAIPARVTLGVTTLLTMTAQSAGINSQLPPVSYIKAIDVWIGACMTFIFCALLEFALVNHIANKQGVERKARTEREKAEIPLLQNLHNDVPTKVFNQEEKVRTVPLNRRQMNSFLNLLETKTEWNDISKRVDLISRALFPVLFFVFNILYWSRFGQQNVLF
Method: as §1, §2, §3

`N[C@@H](CCC(=O)O)C(=O)O` [glutamate] was tested, and the “response of homomeric GluClβ channels” value [1] was “selectively responsive”, the “threshold for activation of homomeric GluClβ channels” value [1] was 50 µM and the “Hill coefficient (glutamate)” value ([1]; GluClβ) was 1.9. The “voltage dependence of current” value ([1]; I/V, GluClβ) was “steep outwardly rectifying voltage dependence”, the EC50 ([1]; read-out: EC50 for glutamate, GluClβ alone) was 380 µM and the “type of drug-sensitive current” value [2] was “rapidly activating reversible”. For the same molecule, the “response of homomeric GluClα channels” value [3] was “do not respond” and the “sensitivity of GluClα channels to glutamate” value ([3]; glutamate concentrations as high as 10 mM) was “insensitive”.
ivermectin-4-O-phosphate [IVMPO4] was tested, and the “response of homomeric GluClβ channels” value [1] was “do not respond”, the “time for maximal activation of IVMPO4-sensitive current” value ([2]; poly(A)+ RNA) was 36 ± 3 s and the “type of drug-sensitive current” value [2] was “irreversible”. For the same molecule, the “response of homomeric GluClα channels” value [3] was “selectively responsive”, the “Hill coefficient (IVMPO4)” value ([3]; GluClα) was 1.5 and the EC50 ([3]; GluClα, read-out: EC50 for IVMPO4 activation of current) was 0.14 µM. The “voltage dependence of current” value ([3]; I/V, GluClα) was “essentially a linear voltage dependence” and the “time course for IVMPO4 activation” value ([3]; homomeric GluClα) was 18 ± 1 s.
